According to PubChem BioAssay AID698 (NMMLSC, 2007):
The source made the active and inactive calls. No rule for the calls is given here.

Molecular target: N-formyl peptide receptor 2 (Homo sapiens) (UniProt P25090)
Test: inhibition of ligand-evoked FPRL1 calcium flux – cell-based, calcium response, confirmation (AID 698)
Conditions: FPRL1-expressing cells, ligand-induced calcium response, antagonist mode; active compounds read high; concentration not given here

N-formyl peptide receptor 2 (Homo sapiens), sequence (P25090 whole entry, looked up): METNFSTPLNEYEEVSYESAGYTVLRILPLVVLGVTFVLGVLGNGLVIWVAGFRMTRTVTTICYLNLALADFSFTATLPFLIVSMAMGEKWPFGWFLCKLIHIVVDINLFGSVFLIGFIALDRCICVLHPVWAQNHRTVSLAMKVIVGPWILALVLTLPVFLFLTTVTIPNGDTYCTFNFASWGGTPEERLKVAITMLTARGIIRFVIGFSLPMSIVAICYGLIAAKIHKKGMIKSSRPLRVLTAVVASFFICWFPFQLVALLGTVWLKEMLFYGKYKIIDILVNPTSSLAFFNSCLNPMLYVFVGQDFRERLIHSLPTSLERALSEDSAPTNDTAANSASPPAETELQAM

## COc1ccc(-c2cn3cccnc3n2)cc1NC(=O)C1CC1
  inhibition: 98.1%

## CC(=O)OCCNc1cc(N2CCN(C)CC2)c2noc3c2c1C(=O)c1ccccc1-3
  inhibition: 93.4%

## Nc1ccc(Nc2ccccc2N)cc1
  inhibition: 69.5% (inactive)

## CCOc1cc(C(=O)NCc2nnc(SCC(=O)OC)n2C)cc(OCC)c1OCC
  inhibition: 0% (inactive)

## CCOC(=O)CSc1nnc(CNC(=O)c2cc(OCC)c(OCC)c(OCC)c2)n1C
  inhibition: 0% (inactive)

## O=C(O)CCCNc1cc(N2CCC3(CC2)OCCO3)c2noc3c2c1C(=O)c1ccccc1-3
  inhibition: 0% (inactive)

## COc1ccc(-c2cc(C(F)(F)F)nc(N3CCN(Cc4ccccc4)CC3)n2)cc1OC
  inhibition: 96.3%
